According to patent US5461154A, “Intermediate and process for making” (Eli Lilly and Company, priority 1994, dated 1995):

What follows are molecules tested against T1, HIV-1 protease (Human immunodeficiency virus type 1 group M subtype B, UniProt P04585) (assay: biochemical). Details: not given.
T1 construct: Purified HIV-1 protease was obtained as described above; made in house; host or cells: E. coli K12 L507/pHP10D (NRRL B-18560)
Method: A culture of E. coli K12 L507/pHP10D was grown to mid-log phase at 32° C. in LB media containing 12.5 μg/mL tetracycline. The cultivation temperature was quickly elevated to 40° C. to induce gene expression, and the cells were allowed to grow for 2.5 hours at this temperature before the culture was quickly chilled on ice. The cells were centrifuged and the cell pellet was resuspended in 20 mL of 50 mmol MES buffer (pH 6.0) containing 1 mmol EDTA, 1 mmol DTT, 1 mmol PMSF and 10% glycerol ("Buffer A"). Cells were lysed by sonication using a Fischer Model 300 Dismembrator and a microtip probe. Following centrifugation at 27,000×g, the supernatant was diluted to a total volume of 60 mL with Buffer A and loaded onto a 2.0×19 cm QAE-Sepharose column (1 mL/min, 4° C.), that had been equilibrated in Buffer A. The column was washed isocratically for 180 min and then eluted with a gradient eluent of 0-1.0M aqueous sodium chloride in Buffer A over 120 min. Enzymatic activity was measured by HPLC using the synthetic peptide Ser-Gln-Asn-Tyr-Pro-Ile-Val as described in Margolin et al., Biochem. Biophys. Res. Common., 167, 554-560 (1990); the production of the p1 peptide (Ser-Gln-Asn-Tyr) was measured.
The active fractions were combined, adjusted to […] 1.2M in ammonium sulfate, and applied to a 2.0×18 cm hexyl agarose column that had been equilibrated in Buffer A containing 1.2M ammonium sulfate. The sample was loaded at a flow rate of 1 mL/min at 4° C., washed with the equilibration buffer for 240 min (1 mL/min) and then eluted using a reverse linear gradient of 1.2-0M ammonium sulfate in Buffer A for 120 min at the same flow rate. The column was then washed isocratically in Buffer A for 120 min.
The active fractions were combined, concentrated to 10 mL using an Amicon stirred cell with a YM-10 membrane and then applied to a MonoS cation exchange column (1.0×10 cm) that had been equilibrated in Buffer A. The sample was loaded at a flow rate of 1 mL/min at 25° C. After washing isocratically for 30 min, the protease was eluted using a linear gradient of 0-0.45M aqueous sodium chloride in Buffer A over 40 min. The column was washed isocratically in Buffer A containing 0.45M aqueous sodium chloride for 30 minutes.
The active fractions were combined and concentrated to 200 μL using an Amicon stirred cell and a YM-10 membrane and then the protease was applied to a Superose 6 size exclusion column equilibrated in Buffer A containing 0.1M aqueous sodium chloride.
E. Fluorescence HIV-1 Protease Inhibitor Assay
The following buffers and solutions are used in the Fluorescence HIV-1 Protease Inhibitor Assay:
To each well of a round bottom, 96-well plate is added 20 μL of the Enzyme Solution followed by 10 μL of the compound to be evaluated in a 20% aqueous dimethylsulfoxide solution. Purified HIV-1 protease was obtained as described above. The resulting solution is incubated for one hour at room temperature and then 20 μL of a solution containing the substrate, prepared above, in MES-ALB buffer (1.5 μL/mL) is added to each well. The solutions are then incubated for 16 hours at room temperature and then each well is diluted with 150 μL of MES-ALB buffer.
To each well of a second round bottom, 96-well Pandex plate is added 25 uL of the Avidin Coated Beads Solution. Then, to each well is added 25 μL of the diluted incubation solutions, prepared above. The solutions are mixed thoroughly and the plates are loaded into a Pandex® machine, washed, evacuated and read. Sample detection was performed by excitation at 485 nm, reading the resulting epifluorescence at 535 nm.
Molecule Cc1c(O)cccc1C(=O)N[C@@H](Cc1ccccc1)[C@H](O)CN1CCC[C@H]1C(=O)NC(C)(C)C [Example 4, [2S-(2R*,2'S*,3'R*)]-1-[2'-Hydroxy-3'-phenylmethyl-4'-aza-5'-oxo-5'-(2"-methyl-3"-hydroxyphenyl)pentyl]pyrrolidine-2-N-t-butylcarboxamide] has an IC50 of 3050 nM. Work on Cc1c(O)cccc1C(=O)N[C@@H](Cc1ccccc1)[C@H](O)CN1CCCC[C@H]1C(=O)NC(C)(C)C [Example 6, [2S-(2R*,2'S*,3'R*)]-1-[2'-Hydroxy-3'-phenylmethyl-4'-aza-5'-oxo-5'-(2"-methyl-3"-hydroxyphenyl)pentyl]piperidine-2-N-t-butylcarboxamide] yielded an IC50 of 1070 nM.

Same assay, conditions: read-out: Fluorescence Assay IC50 (converted)
Molecule CC(C)(C)NC(=O)[C@@H]1C[C@@H]2CCCC[C@@H]2CN1C[C@@H](O)[C@H](Cc1ccccc1)NC(=O)c1cccc(Cl)c1Cl [Example 14, [3S-(3R*,4aR*,8aR*,2'S*,3R*)]-2-[2'-Hydroxy-3'-phenylmethyl-4'-aza-5'-oxo-5'-(2",3"-dichlorophenyl)pentyl]decahydroisoquinoline-3-N-t-butylcarboxamide] has an IC50 of 176 nM. Work on Cc1c(C(=O)N[C@@H](Cc2ccccc2)[C@H](O)CN2C[C@H]3CCCC[C@H]3C[C@H]2C(=O)NC(C)(C)C)cc[nH]c1=O [Example 16, [3S-(3R*,4aR*,8aR*,2'S*,3'R*)]-2-[2'-Hydroxy-3-phenylmethyl-4'-aza-5'-oxo-5'-(2"-oxo-3"-methyl-pyrid-4"-yl)pentyl]decahydroisoquinoline-3-N-t-butylcarboxamide] yielded an IC50 of 613 nM. Work on CC(C)(C)NC(=O)[C@@H]1C[C@@H]2CCCC[C@@H]2CN1C[C@@H](O)[C@H](Cc1ccccc1)NC(=O)c1c(Cl)ccc(O)c1Cl [Example 17, [3S-(3R*,4aR*,8aR*,2'S*,3'R*)]-2-[2'-Hydroxy-3'-phenylmethyl-4'-aza-5'-oxo-5'-(2",6"-dichloro-3"-hydroxyphenyl)pentyl]decahydroisoquinoline-3-N-t-butylcarboxamide] yielded an IC50 of 455 nM. With CC(C)(C)NC(=O)[C@@H]1CN(Cc2cccnc2)CCN1C[C@@H](O)[C@H](CSc1ccccc1)NC(=O)c1cccc2ncccc12 [Example 34, [2S-(2R*,2'S*,3'S*)]-1-[2'-Hydroxy-3'-phenylthiomethyl-4'-aza-5'-oxo-5'-(quinolin-5"-yl)pentyl]-4-(pyrid-3'"-ylmethyl)piperazine-2-N-t-butylcarboxamide] the IC50 was 7.18 nM. Cc1cnccc1C(=O)N[C@@H](CSc1ccccc1)[C@H](O)CN1CCN(Cc2cccnc2)C[C@H]1C(=O)NC(C)(C)C [Example 35, [2S-(2R*,2'S*,3'S*)]-1-[2'-Hydroxy-3'-phenylthiomethyl-4'-aza-5'-oxo-5'-[3"-methyl-pyrid-4"-yl)]pentyl]-4-(pyrid-3'"-ylmethyl)piperazine-2-N-t-butylcarboxamide] gave an IC50 of 53.7 nM. Cc1ccc2ncccc2c1C(=O)N[C@@H](CSc1ccccc1)[C@H](O)CN1C[C@H]2CCCC[C@H]2C[C@H]1C(=O)NC(C)(C)C [Example 38] showed an IC50 of 25.2 nM.

Same assay, conditions: read-out: Fluorescence Assay IC50; […]; room temperature, 16 hours with substrate
Cc1c(NS(C)(=O)=O)cccc1C(=O)N[C@@H](Cc1ccccc1)[C@H](O)CN1C[C@H]2CCCC[C@H]2C[C@H]1C(=O)NC(C)(C)C [Example 36, [3S-(3R*,4aR*,8aR*,2'S*,3'S*)]-2-[2'-Hydroxy-3'-phenylmethyl-4'-aza-5'-oxo-5'-[2"-methyl-3"-N-(methylsulfonyl)amino-phenyl)]pentyl]decahydroisoquinoline-3-N-t-butylcarboxamide] was tested, and the IC50 was 101 nM.
